Assay results from ChEMBL document CHEMBL1201862, “PubChem BioAssay data set” (2004).
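The compound was tested at five concentrations on cells cultured in 96-well plates, with a 48-hour exposure period. GI50: concentration for 50% inhibition of growth.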 The source made the active and inactive calls. Cut-off read from the data, not from the text of the source: active = GI50 up to about 1.1 µM and inactive = higher.

What was measured:
Assay in all cases: inhibition of tumour cell growth, NCI panel, 48 h
HCC 2998 = system: HCC 2998
786-0 = system: 786-0
SW-620 = system: SW-620
UO-31 = system: UO-31
KM-20L2 = system: KM-20L2
NCI-H226 = system: NCI-H226
SF-539 = system: SF-539
SF-268 = system: SF-268
Malme-3M = system: Malme-3M
M19-MEL = system: M19-MEL
CAKI-1 = system: CAKI-1
A498 = system: A498
CCRF-CEM = system: CCRF-CEM
SF-295 = system: SF-295
NCI-H23 = system: NCI-H23
LOX IMVI = system: LOX IMVI
SR = system: SR
OVCAR-5 = system: OVCAR-5
SK-MEL-28 = system: SK-MEL-28

Row | Compound | GI50 (HCC 2998) | GI50 (786-0) | GI50 (SW-620) | GI50 (UO-31) | GI50 (KM-20L2) | GI50 (NCI-H226) | GI50 (SF-539) | GI50 (SF-268) | GI50 (Malme-3M) | GI50 (M19-MEL) | GI50 (CAKI-1) | GI50 (A498) | GI50 (CCRF-CEM) | GI50 (SF-295) | GI50 (NCI-H23) | GI50 (LOX IMVI) | GI50 (SR) | GI50 (OVCAR-5) | GI50 (SK-MEL-28)
1 | O=C1c2c(c(-c3ccccc3)c(-c3ccccc3)c(-c3ccccc3)c2-c2ccccc2)C(=O)N1c1cccc(Br)c1 | > 100 µM (inactive) | > 100 µM (inactive) | > 100 µM (inactive) | > 100 µM (inactive) | > 100 µM (inactive) | > 100 µM (inactive) | > 100 µM (inactive) | > 100 µM (inactive) | > 100 µM (inactive) | > 100 µM (inactive) | > 100 µM (inactive) | > 100 µM (inactive) | > 100 µM (inactive) | > 100 µM (inactive) | > 100 µM (inactive) | > 100 µM (inactive) | > 100 µM (inactive) | > 100 µM (inactive) | 
2 | CC(=O)Nc1ccc(-c2nnc(SCC(=O)Nc3ccc(Cl)cc3)o2)cc1 | 17 µM (inactive) | 5.78 µM (inactive) | 6.21 µM (inactive) | 14.4 µM (inactive) | 16.4 µM (inactive) | 11.1 µM (inactive) | 16 µM (inactive) | 4.53 µM (inactive) | 13.6 µM (inactive) | 11.7 µM (inactive) | 18 µM (inactive) | 14.8 µM (inactive) | 3.5 µM (inactive) | 11.3 µM (inactive) | 3.39 µM (inactive) | 5.33 µM (inactive) |  | 16.4 µM (inactive) | 13.2 µM (inactive)
3 | CC(=O)O[C@H]1CC[C@@]2(C)C(=CC[C@@H]3C2CC[C@]2(C)Nc4nc5ccccc5cc4CC32)C1 (some centres not stated) | 2.98 µM (inactive) | 3.28 µM (inactive) | 2.59 µM (inactive) | 4.92 µM (inactive) | 1.77 µM (inactive) | 3.05 µM (inactive) | 3.78 µM (inactive) | 4.2 µM (inactive) | 6.55 µM (inactive) | 3.59 µM (inactive) | 4.28 µM (inactive) | 5.47 µM (inactive) | 3.54 µM (inactive) | 3.78 µM (inactive) | 12.4 µM (inactive) |  |  | 13.9 µM (inactive) | 
4 | CN(C)CCONC(=O)C12CC3CC(CC(C3)C1)C2 |  | > 100 µM (inactive) |  | > 100 µM (inactive) | > 100 µM (inactive) | > 100 µM (inactive) | > 100 µM (inactive) | > 100 µM (inactive) | 0.02 µM (active) | > 100 µM (inactive) | > 100 µM (inactive) | > 100 µM (inactive) | > 100 µM (inactive) | > 100 µM (inactive) | > 100 µM (inactive) | > 100 µM (inactive) | > 100 µM (inactive) | > 100 µM (inactive) | > 100 µM (inactive)
5 | COc1c2c(c(OC)c3c(=O)cc(C/C(=N/NC(=O)C[n+]4ccccc4)C(=O)Nc4cc(C)ccc4C)oc13)OCO2 | > 100 µM (inactive) | > 100 µM (inactive) | > 100 µM (inactive) | > 100 µM (inactive) | > 100 µM (inactive) |  | > 100 µM (inactive) | > 100 µM (inactive) | > 100 µM (inactive) | > 100 µM (inactive) | > 100 µM (inactive) | > 100 µM (inactive) | > 100 µM (inactive) |  | > 100 µM (inactive) | > 100 µM (inactive) |  | > 100 µM (inactive) | > 100 µM (inactive)
6 | Cc1nc2c(n1CCN(C)C)C(=O)c1ccccc1C2=O | 19.7 µM (inactive) | 28 µM (inactive) | 15.2 µM (inactive) | 21 µM (inactive) | 6.31 µM (inactive) | 31.6 µM (inactive) | 19.1 µM (inactive) | 22 µM (inactive) | 2.84 µM (inactive) | 2.02 µM (inactive) |  |  | 17.7 µM (inactive) | 15.7 µM (inactive) | 12.1 µM (inactive) | 14.9 µM (inactive) | 11.7 µM (inactive) |  | 53.6 µM (inactive)
7 | CCc1cccc(C(C)CC)c1/N=C(/NC(=O)c1ccccc1C(=O)N/C(=N/c1c(CC)cccc1C(C)CC)SC)SC (configuration not stated) | 49.8 µM (inactive) | 49.3 µM (inactive) | 31.9 µM (inactive) | 30.6 µM (inactive) | 28.4 µM (inactive) | 17.7 µM (inactive) | 26.5 µM (inactive) | 72.3 µM (inactive) | 48.5 µM (inactive) | 51.4 µM (inactive) | 42.2 µM (inactive) |  | 27.5 µM (inactive) | 37.4 µM (inactive) | 31.9 µM (inactive) | 31.3 µM (inactive) | 39.6 µM (inactive) | 60.1 µM (inactive) | 45 µM (inactive)
8 | CC(=O)N1c2ccccc2N(C(C)=O)C1c1ccc(C2N(C(C)=O)c3ccccc3N2C(C)=O)[nH]1 | > 100 µM (inactive) | > 100 µM (inactive) | > 100 µM (inactive) | > 100 µM (inactive) | > 100 µM (inactive) | > 100 µM (inactive) | > 100 µM (inactive) | > 100 µM (inactive) | > 100 µM (inactive) | > 100 µM (inactive) | > 100 µM (inactive) | > 100 µM (inactive) | > 100 µM (inactive) | > 100 µM (inactive) | > 100 µM (inactive) | > 100 µM (inactive) | > 100 µM (inactive) | > 100 µM (inactive) | 
